Ends that are not written are not given here.

The source of these data is US8039585B2, “Therapeutic administration of the scrambled anti-angiogenic peptide C16Y” (The United States of America as represented by the …, priority 2004, dated 2011).

The first test concerns HUVECs. Description: Endothelial cell tube-forming assay on Matrigel. The class given is cell-based, human. More on the design: key to Disruption of tube formation / Activity (tube formation, truncated C16Y peptides): +: tubes slightly affected; ++: tubes moderately affected; +++: tubes disrupted; ++++: tubes completely disrupted; −: tubes resemble control.
Conditions: not given
On the procedure: FIG. 3: Disruption of endothelial cell tube formation by C16Y peptide. 48-well plates were coated with 200 μl of Matrigel per well. Each well was treated with RPMI containing 24,000 human umbilical vein endothelial cells (HUVECS) and 100 mg/L endothelial cell growth factor in the presence of 10-75 μg/ml of C16 or scrambled C16 peptide for 16 hours. Control wells contained medium only. Cells were fixed and stained, and tube formation was scored by a blinded observer.
Tube-forming assays were performed as described previously (Ponce 2001). 48-well plates were coated with 200 μl/well of Matrigel (Gho 2001; Kubota 1988), a basement membrane matrix. HUVECs (24,000 cells/well) were plated in RPMI 1640 containing 10% bovine calf serum, defined and supplemented (HyClone Laboratories, Inc., Logan, Utah), along with 100 mg/liter of endothelial cell growth factor (Collaborative Biomedical). C16 or scrambled C16 peptides were added at concentrations ranging from 10-75 μg/ml. Control wells contained medium only. After 16 hours, cells were fixed and stained with Diff-Quick fixative (methanol) and solution II (6.25% (w/v) each of azure A and methylene blue) (Dade A G, Dudingen, Switzerland), and tube formation was scored by a blinded observer. Each peptide was tested at least in triplicate, and the assays were repeated a minimum of three times.
Tube formation assays were repeated using truncated versions of the C16Y peptide to determine the minimal active sequence of the peptide. The carboxyl end of C16Y was not necessary for activity, whereas the amino terminal aspartic acid was required. The minimal active sequence for the C16Y peptide is shown in SEQ ID NO: 2. Each of the peptides containing at least this 8 amino acid sequence (SEQ ID NOs: 1-5) inhibited tube formation.
Turning to “SEQ ID NO: 6: peptide having the fibronectin sequence (residues 1023-1033) of c-elegans (DYKYFAVYYR) [reference compound]”, the “Effect on endothelial tube formation” value is listed as “no ability to block endothelial tube formation”.

Staying with this test, now noted: truncated versions of C16Y; concentration not given.
With DFKLFAVYIK [truncated version of C16Y], the “Activity (tube formation, truncated C16Y peptides)” value (from here on “Activity”) is “++”.

On to DFKLFAVYI [truncated version of C16Y], for which the “Activity” value is given as “++”.

In the case of DFKLFAVYIKY [truncated version of C16Y], the “Activity” value was “++”.

As to DFKLFAVY (DFKLFAVY-NH2), the “Activity” value is reported as “++”.

Turning to DFKLFAV [truncated version of C16Y], the “Activity” value was “−”.

Turning to DFKLF, the “Activity” value was “−”.

As to FAVYIKYR [truncated version of C16Y], the “Activity” value is recorded as “−”.

Consider YIKYR, for which the “Activity” value is “−”.

Regarding DFKLFA, the “Activity” value is given as “−”.

Regarding DRKL, the “Activity” value is “−”.

As for LFAVYIKYR [truncated version of C16Y], the “Activity” value is recorded as “−”.

With FKLFAVYIKYR [truncated version of C16Y], the “Activity” value is given as “−”.

For the substance AVYIKYR [truncated version of C16Y], the “Activity” value is “−”.

In the case of VYIKYR, the “Activity” value is “−”.

Turning to KLFAVYIKYR [truncated version of C16Y], the “Activity” value is reported as “−”.
